# Data taken from US8263606B2 (Xenon Pharmaceuticals Inc., priority 2008, dated 2012).
# Where a name gives a salt, the structure may show the parent alone.
# Key:
# sodium channel = test: Guanidine influx assay (14C-guanidine radiotracer flux, in vitro); format: cell-based, human or rat; details: guanidine influx assay using a known cell line that expresses a sodium channel
# Outline: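 Sodium channel block is measured as reduced 14C-guanidine uptake in cells stably expressing human or rat channels, stimulated with aconitine. Potency is given as IC50 from a four-parameter curve.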
# CYP3A4 = CYP3A4 (Homo sapiens, UniProt P08684); test: Cytochrome P450 (CYP450) Inhibition Assay, CYP3A4 (Vivid fluorescence, BOMCC substrate); details: human, P450 Baculosomes (recombinant CYP3A4), probe BOMCC (Vivid substrate)
# CYP3A4, sequence (P08684 whole entry): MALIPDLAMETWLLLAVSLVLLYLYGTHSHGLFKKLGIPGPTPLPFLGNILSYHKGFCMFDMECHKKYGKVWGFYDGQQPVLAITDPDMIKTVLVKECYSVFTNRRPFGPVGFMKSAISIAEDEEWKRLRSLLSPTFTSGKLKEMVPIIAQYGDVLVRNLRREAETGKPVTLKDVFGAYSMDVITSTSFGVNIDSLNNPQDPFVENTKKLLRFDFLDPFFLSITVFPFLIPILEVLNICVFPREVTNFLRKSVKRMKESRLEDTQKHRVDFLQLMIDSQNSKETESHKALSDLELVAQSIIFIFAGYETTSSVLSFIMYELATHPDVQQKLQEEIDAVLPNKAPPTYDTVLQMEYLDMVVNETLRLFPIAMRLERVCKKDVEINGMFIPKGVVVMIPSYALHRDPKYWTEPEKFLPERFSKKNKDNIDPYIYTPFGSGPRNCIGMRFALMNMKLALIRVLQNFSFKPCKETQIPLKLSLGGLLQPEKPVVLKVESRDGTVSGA
IC50 (sodium channel) [µM],inhibition at 10 µM (CYP3A4) [%],SMILES
0.1 to 1,< 50,"O=C1N(Cc2cccc[n+]2[O-])c2ccccc2C12COc1cc3c(cc12)OCCO3 (centres unmarked) [Example 11.95, 1′-[(1-oxidopyridin-2-yl)methyl]-2,3-dihydrospiro[furo[2,3-g][1,4]benzodioxine-8,3′-indol]-2′(1′H)-one]"
0.1 to 1,> 50,"CS(=O)(=O)Nc1cccnc1CN1C(=O)C2(COc3cc4c(cc32)OCCO4)c2ccccc21 (centres unmarked) [Example 11.98, N-{2-[(2′-oxo-2,3-dihydrospiro[furo[2,3-g][1,4]benzodioxine-8,3′-indol]-1′(2′H)-yl)methyl]pyridine-3-yl}methanesulfonamide]"
1 to 10,< 50,"O=C1N(CC2CCNCC2)c2ccccc2C12COc1cc3c(cc12)OCCO3 (centres unmarked) [Example 11.99, 1-(piperidin-4-ylmethyl)-2,3-dihydrospiro[furo[2,3-g][1,4]benzodioxine-8,3′-indol]-2′(1′H)-one hydrochloride]"
1 to 10,< 50,"CN1CCC(CN2C(=O)C3(COc4cc5c(cc43)OCCO5)c3ccccc32)CC1 (centres unmarked) [Example 11.101, 1-[(1-methylpiperidin-4-yl)methyl]-2,3-dihydrospiro[furo[2,3-g][1,4]benzodioxine-8,3′-indol]-2′(1′H)-one hydrochloride]"
0.001 to 0.1,> 50,"CN1CCC(CN2C(=O)C3(COc4cc(F)c(F)cc43)c3ccccc32)CC1 (centres unmarked) [Example 11.112, 5,6-difluoro-1′-[(1-methylpiperidin-4-yl)methyl]spiro[1-benzofuran-3,3′-indol]-2′(1′H)-one hydrochloride]"
0.1 to 1,> 50,"O=C(NCC1CCCCC1)c1cccc(CN2C(=O)C3(COc4cc5c(cc43)CCO5)c3ccccc32)c1 (centres unmarked) [Example 12, N-(cyclohexylmethyl)-3-[(2′-oxo-5,6-dihydrospiro[benzo[1,2-b:5,4-b′]difuran-3,3′-indol]-1′(2′H)-yl)methyl]benzamide]"
0.1 to 1,> 50,"CC(CNC(=O)c1cccc(CN2C(=O)C3(COc4cc5c(cc43)CCO5)c3ccccc32)c1)c1ccccc1 (centres unmarked) [Example 12.5, 3-[(2′-oxo-5,6-dihydrospiro[benzo[1,2-b:5,4-b′]difuran-3,3′-indol]-1′(2′H)-yl)methyl]-N-(2-phenylpropyl)benzamide]"
0.1 to 1,> 50,"C[C@H](NC(=O)c1cccc(CN2C(=O)C3(COc4cc5c(cc43)CCO5)c3ccccc32)c1)C1CCCCC1 (stereo partly drawn) [Example 12.6, N-[(1S)-1-cyclohexylethyl]-3-[(2′-oxo-5,6-dihydrospiro[benzo[1,2-b:5,4-b′]difuran-3,3′-indol]-1′(2′H)-yl)methyl]benzamide]"
1 to 10,> 50,"C[C@@H](NC(=O)c1cccc(CN2C(=O)C3(COc4cc5c(cc43)CCO5)c3ccccc32)c1)C1CCCCC1 (stereo partly drawn) [Example 12.7, N-[(1R)-1-cyclohexylethyl]-3-[(2′-oxo-5,6-dihydrospiro[benzo[1,2-b:5,4-b′]difuran-3,3′-indol]-1′(2′H)-yl)methyl]benzamide]"
1 to 10,> 50,"COc1ccc(CCNC(=O)c2ccccc2CN2C(=O)C3(COc4cc5c(cc43)CCO5)c3ccccc32)cc1 (centres unmarked) [Example 12.22, N-[2-(4-methoxyphenyl)ethyl]-2-[(2′-oxo-5,6-dihydrospiro[benzo[1,2-b:5,4-b′]difuran-3,3′-indol]-1′(2′H)-yl)methyl]benzamide]"
1 to 10,> 50,"O=C(NCc1cccc(Cl)c1)c1ccccc1CN1C(=O)C2(COc3cc4c(cc32)CCO4)c2ccccc21 (centres unmarked) [Example 12.23, N-(3-chlorobenzyl)-2-[(2′-oxo-5,6-dihydrospiro[benzo[1,2-b:5,4-b′]difuran-3,3′-indol]-1′(2′H)-yl)methyl]benzamide]"
1 to 10,> 50,"O=C(NCCc1ccc(Cl)cc1)c1ccccc1CN1C(=O)C2(COc3cc4c(cc32)CCO4)c2ccccc21 (centres unmarked) [Example 12.24, N-[2-(4-chlorophenyl)ethyl]-2-[(2′-oxo-5,6-dihydrospiro[benzo[1,2-b:5,4-b′]difuran-3,3′-indol]-1′(2′H)-yl)methyl]benzamide]"
1 to 10,< 50,"COc1ccccc1NC(=O)c1ccc(CN2C(=O)C3(COc4cc5c(cc43)CCO5)c3ccccc32)cc1 (centres unmarked) [Example 12.25, N-(2-methoxyphenyl)-4-[(2′-oxo-5,6-dihydrospiro[benzo[1,2-b:5,4-b′]difuran-3,3′-indol]-1′(2′H)-yl)methyl]benzamide]"
1 to 10,> 50,"O=C(Nc1ccccc1C(F)(F)F)c1ccc(CN2C(=O)C3(COc4cc5c(cc43)CCO5)c3ccccc32)cc1 (centres unmarked) [Example 12.26, 4-[(2′-oxo-5,6-dihydrospiro[benzo[1,2-b:5,4-b′]difuran-3,3′-indol]-1′(2′H)-yl)methyl]-N-[2-(trifluoromethyl)phenyl]benzamide]"
0.1 to 1,< 50,"O=C(Nc1ccccc1)c1ccc(CN2C(=O)C3(COc4cc5c(cc43)CCO5)c3ccccc32)cc1 (centres unmarked) [Example 12.27, 4-[(2′-oxo-5,6-dihydrospiro[benzo[1,2-b:5,4-b′]difuran-3,3′-indol]-1′(2′H)-yl)methyl]-N-phenylbenzamide]"
0.1 to 1,> 50,"CNC(=O)c1ccc(CN2C(=O)C3(COc4cc5c(cc43)CCO5)c3ccccc32)cc1 (centres unmarked) [Example 12.28, N-methyl-4-[(2′-oxo-5,6-dihydrospiro[benzo[1,2-b:5,4-b′]difuran-3,3′-indol]-1′(2′H)-yl)methyl]benzamide]"
0.1 to 1,< 50,"O=C(Nc1ccccc1F)c1ccc(CN2C(=O)C3(COc4cc5c(cc43)CCO5)c3ccccc32)cc1 (centres unmarked) [Example 12.29, N-(2-fluorophenyl)-4-[(2′-oxo-5,6-dihydrospiro[benzo[1,2-b:5,4-b′]difuran-3,3′-indol]-1′(2′H)-yl)methyl]benzamide]"
0.1 to 1,> 50,"O=C(NCCc1cccs1)c1ccc(CN2C(=O)C3(COc4cc5c(cc43)CCO5)c3ccccc32)cc1 (centres unmarked) [Example 12.30, 4-[(2′-oxo-5,6-dihydrospiro[benzo[1,2-b:5,4-b′]difuran-3,3′-indol]-1′(2′H)-yl)methyl]-N-(2-thiophen-2-ylethyl)benzamide]"
0.001 to 0.1,> 50,"NC(=O)c1ccc(CN2C(=O)C3(COc4cc5c(cc43)CCO5)c3ccccc32)cc1 (centres unmarked) [Example 12.31, 4-[(2′-oxo-5,6-dihydrospiro[benzo[1,2-b:5,4-b′]difuran-3,3′-indol]-1′(2′H)-yl)methyl]benzamide]"
1 to 10,< 50,"O=C(Nc1ccc2c(c1)CCC2)c1ccc(CN2C(=O)C3(COc4cc5c(cc43)CCO5)c3ccccc32)cc1 (centres unmarked) [Example 12.32, N-(2,3-dihydro-1H-inden-5-yl)-4-[(2′-oxo-5,6-dihydrospiro[benzo[1,2-b:5,4-b′]difuran-3,3′-indol]-1′(2′H)-yl)methyl]benzamide]"
1 to 10,> 50,"O=C(c1ccc(CN2C(=O)C3(COc4cc5c(cc43)CCO5)c3ccccc32)cc1)N1CCOCC1 (centres unmarked) [Example 12.33, 1′-[4-(morpholin-4-ylcarbonyl)benzyl]-5,6-dihydrospiro[benzo[1,2-b:5,4-b′]difuran-3,3′-indol]-2′(1′H)-one]"
1 to 10,< 50,"NC(=O)CN1C(=O)C2(COc3cc4c(cc32)CCO4)c2ccccc21 (centres unmarked) [Example 12.46, 2-(2′-oxo-5,6-dihydrospiro[benzo[1,2-b:5,4-b′]difuran-3,3′-indol]-1′(2′H)-yl)acetamide]"
1 to 10,< 50,"CCc1ccc(NC(=O)CN2C(=O)C3(COc4cc5c(cc43)CCO5)c3ccccc32)cc1 (centres unmarked) [Example 12.47, N-(4-ethylphenyl)-2-(2′-oxo-5,6-dihydrospiro[benzo[1,2-b:5,4-b′]difuran-3,3′-indol]-1′(2′H)-yl)acetamide]"
0.1 to 1,< 50,"CCN(CC)C(=O)CN1C(=O)C2(COc3cc4c(cc32)CCO4)c2ccccc21 (centres unmarked) [Example 12.48, N,N-diethyl-2-(2′-oxo-5,6-dihydrospiro[benzo[1,2-b:5,4-b′]difuran-3,3′-indol]-1′(2′H)-yl)acetamide]"
1 to 10,< 50,"CNC(=O)c1cccnc1CN1C(=O)C2(COc3cc4c(cc32)OCCO4)c2ccccc21 (centres unmarked) [Example 12.63, N-methyl-2-[(2′-oxo-2,3-dihydrospiro[furo[2,3-g][1,4]benzodioxine-8,3′-indol]-1′(2′H)-yl)methyl]pyridine-3-carboxamide]"
0.1 to 1,> 50,"NCCNC(=O)c1cccnc1CN1C(=O)C2(COc3cc4c(cc32)OCCO4)c2ccccc21 (centres unmarked) [Example 12.64, N-(2-aminoethyl)-2-[(2′-oxo-2,3-dihydrospiro[furo[2,3-g][1,4]benzodioxine-8,3′-indol]-1′(2′H)-yl)methyl]pyridine-3-carboxamide dihydrochloride]"
1 to 10,< 50,"O=C(O)c1ccc(CN2C(=O)C3(COc4cc5c(cc43)CCO5)c3ccccc32)o1 (centres unmarked) [Example 13, 5-[(2′-oxo-5,6-dihydrospiro[benzo[1,2-b:5,4-b′]difuran-3,3′-indol]-1′(2′H)-yl)methyl]furan-2-carboxylic acid]"

SMILES,IC50 (sodium channel) [µM],inhibition at 10 µM (CYP3A4) [%]
"Nc1cccnc1CN1C(=O)C2(COc3cc4c(cc32)OCCO4)c2ccccc21 (centres unmarked) [Example 11.97, 1′-[(3-aminopyridin-2-yl)methyl]-2,3-dihydrospiro[furo[2,3-g][1,4]benzodioxine-8,3′-indol]-2′(1′H)-one hydrobromide]",0.001 to 0.1,> 50
